In patent publication US6441049B2, “Method of treating neurodegenerative disorders via inhibition of amyloid beta peptide binding” (Ortho-McNeil Pharmaceutical, Inc., priority 1998, dated 2002):

Tests used:
[1] = test system: Aβ1-42 mediated inhibition of ACh release in rat cortical synaptosomes; assay: Amelioration of the Aβ1-42 mediated inhibition of ACh release in rat cortical synaptosomes; assay type: cell-based
[2] = biological target: 206-216 stretch of the human α7 nAChR (Homo sapiens, UniProt P36544)
Protocol: A 2-5 ug quantity of the 11 amino acid peptide comprised of the 206-216 stretch of the α7 nAChR (N-Ac, C(O)NH2) are added to a 96-well microtiter plate in 50 mL 10 mM HEPES, pH 7.4, or any buffer 50 ul. ^125I-β-amyloid1-40 (2000 Ci/mmol, 50 pM) was added to the wells in the presence and absence of inhibitors (1 uM to 10 uM) dissolved in 1 uL of 30% or 100% DMSO. Unbound ligands were removed and bound radioactivity was measured using a Microbeta liquid scintillation counter.

[3] = biological target: T1, alpha-7 nAChRs (Homo sapiens); assay: 125I-Aβ1-40 binding to alpha-7 nAChRs (SK-N-MC cell membranes) on wheat germ agglutinin SPA beads; settings: read-out: IC50, inhibition of 125I-Aβ1-40 binding to SK-N-MC cells
T1 construct: alpha-7 nAChR contained SK-N-MC cell membranes were immobilized; endogenous in cells; host or cells: SK-N-MC cell membranes
T1 sequence (P05067 672-711): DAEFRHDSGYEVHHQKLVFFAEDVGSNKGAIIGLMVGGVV
Protocol: Alpha-7 nAChRs were immobilized on wheat germ agglutinin coupled yittrium SPA beads and allowed to incubate with ^125I-Aβ1-40 in the presence of various concentrations of cold Aβ1-40 or Aβ1-42.

Aβ aggregation [4] = biological target: T2, Aβ aggregation (Homo sapiens, UniProt P05067); assay: Aβ aggregation assay on Synthaloid plates with labelled Aβ1-40; assay type: biochemical
T2 construct: 100 nM of fluo-Aβ1-40 in 100 μl of each well of the 96-well Synthaloid plate; purchased Amersham Pharmacia Biotech (125I-Aβ1-40); Advanced Bioconcepts (fluo-Aβ1-40)
T2 sequence (P05067 672-711 limits assumed): as the sequence (P05067 672-711) above

[5] = test system: acetylcholine release from guinea pig hippocampus synaptosomes; assay: K+-evoked 3H-acetylcholine release from synaptosomes, effect of Aβs; assay type: cell-based
Protocol: Synaptosomes from guinea pig hippocampus were incubated with 0.1 μM ^3H-choline and then subjected to repeated washes to remove unincorporated ^3H-choline. The synaptosomes were treated with 65 mM K^+ for 30 seconds to elicit 3H-acetylcholine release.

Aβ aggregation [6] = biological target: T2, Aβ aggregation; assay: Aβ aggregation assay on Synthaloid plates with labelled Aβ1-40; assay type: biochemical; remark: listed apart in the source
Protocol: Aβs are known to form aggregates leading to the formation of amyloid plaques that are characteristic of Alzheimer's disease. […] We have validated this aggregation assay using both ^125I-Aβ1-40 and fluo-Aβ1-40 in a buffer containing 50 mM HEPES, pH 7.4, 0.1% BSA, 10% FCS and protease inhibitors. About 500 pM of ^125I-Aβ1-40 or 100 nM of fluo-Aβ1-40 in 100 μl of each well of the 96-well Synthaloid plate was allowed to incubate for 2.5 hr at room temperature in the presence or absence of inhibitors. At the end of the incubation, unbound protein in the wells was removed by three washes using the above buffer. The amount of bound protein which represented Aβ aggregation was measured either by scintillation counting or fluorescence measurements.

[7] = biological target: α7 subtype nAChR homomers (Homo sapiens, UniProt P36544); settings: cited from earlier work
α7 subtype nAChR homomers, sequence (P36544 23-502): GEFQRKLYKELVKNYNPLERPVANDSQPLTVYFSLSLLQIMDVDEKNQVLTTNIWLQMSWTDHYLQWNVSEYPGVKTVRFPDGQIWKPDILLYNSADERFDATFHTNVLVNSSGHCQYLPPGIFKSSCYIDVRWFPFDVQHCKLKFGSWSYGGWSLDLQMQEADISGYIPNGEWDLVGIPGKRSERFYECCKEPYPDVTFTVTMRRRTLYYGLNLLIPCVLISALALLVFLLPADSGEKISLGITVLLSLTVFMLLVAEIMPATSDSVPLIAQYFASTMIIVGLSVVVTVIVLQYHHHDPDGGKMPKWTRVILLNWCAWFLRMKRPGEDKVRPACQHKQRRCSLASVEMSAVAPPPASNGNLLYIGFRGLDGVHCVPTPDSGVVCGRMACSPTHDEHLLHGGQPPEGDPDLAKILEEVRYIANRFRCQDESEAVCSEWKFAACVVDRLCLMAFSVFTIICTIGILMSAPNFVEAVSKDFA

Compound	Amelioration of the Aβ1-42 Meditated Inhibition of ACh Release in Rat Cortical Synaptosomes (%) ([1]; at 1 μM) [% at 1 μM]	Amelioration of the Aβ1-42 Meditated Inhibition of ACh Release in Rat Cortical Synaptosomes (%) ([1]; at 10 μM) [% at 10 μM]	Inhibition of ligand binding to the 206-216 peptide [2]	also measured
Ac-SERFYECCKEP-NH2 [human alpha-7 nAChR206-216 Ac-SERFYECCKEP-NH2] (cysteine pairing not given here)	77	81	inhibited	–
Ac-GIPGKRSERFYECCK-NH2 (cysteine pairing not given here) [human alpha-7 nAChR200-214, peptide stretch of the human alpha-7 nAChR]	71	79	–	–
CCCN(CCC)[C@@H]1Cc2c(O)ccc(O)c2C[C@H]1C (racemic) [Compound 9, 5,8-Dihydroxy-trans-2-di(N-propylamino)-3-methyl-1,2,3,4-tetrahydronaphthalene]	–	–	inhibited	IC50 [3]: 0.3 nM; % α7 nAChR 206-216 Binding ([2]; […], inhibitors 1 uM to 10 uM): 94%; Effect of prolonged incubation on amyloid aggregates (time course) (Aβ aggregation [4]): resulted in disaggregation; Effect on acetylcholine release of Aβ after pretreatment with compound ([5]; 10 nM compound and 100 pM of either Aβ1-40 and Aβ1-42 prior to K+ stimulation): no effect on acetylcholine release; % ACh Release at 10 μM ([5]; 10 μM): 94%; IC50 ([5]; Cavia porcellus, read-out: ACh Release (IC50)): 100 nM; inhibition at 10 µM (Aβ aggregation [6]; 10 μM, read-out: % Inh Agg. (conc μM)): > 90%; IC50 (Aβ aggregation [6]; Synthaloid plate, 2.5 hr, room temperature, read-out: IC50, inhibition of Aβ aggregation): 10 nM
SERFYECCKEP [206-216 peptide without Ac and NH2 end groups]	10	22	–	–
α-bungarotoxin [reference compound]	–	–	inhibited	Kd [7]: 0.65 to 1.7 nM
